The text below walks through data of publication PMC7377239, “Cardiovascular Effects of Polychlorinated Biphenyls and Their Major Metabolites” (Environmental Health Perspectives, 2020).

The subject of the test is iCell cardiomyocytes (human iPSC-derived cardiomyocytes). As to the kind of experiment: High-content imaging of cytotoxicity and mitochondrial integrity in iPSC-CMs. In kind it is cell-based. The note with it: Homo sapiens; for viability at 0.01 µM / activity at 0.01 µM / viability at 0.1 µM / activity at 0.1 µM / viability at 1 µM / activity at 1 µM / viability at 10 µM / activity at 10 µM / viability at 100 µM / activity at 100 µM: 0.00 µM = 100.00; for viability at 0.1 µM / activity at 0.1 µM: 0.10 µM. The procedure, abridged: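 Human iPSC-derived cardiomyocytes were seeded on gelatin-coated 384-well plates at 5,000 cells per well and maintained for 12 d. Test chemicals were added as 10μL of 5× solutions to final concentrations of 0.01 to 100μM. Cells were stained with Hoechst 33342 and MitoTracker™ Orange, fixed in formaldehyde, and imaged by confocal high-content microscopy at 10× magnification.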

[1] abbreviates: Cardiomyocyte, 1.5 h, cardiomyocytes (cm), cam, 90 min, read-out: POD cm.cam.90min.
The mark [2] stands for this setting: Cardiomyocyte, 1.5 h, cardiomyocytes (cm), mii, 90 min, read-out: POD cm.mii.90min.
[3] abbreviates: Cardiomyocyte, 1.5 h, cardiomyocytes (cm), mito, 90 min, read-out: POD cm.mito.90min.
Setting [4] is: Cardiomyocyte, 1.5 h, cardiomyocytes (cm), tc, 90 min, read-out: POD cm.tc.90min.
The mark [5] stands for this setting: Cardiomyocyte, 24 h, cardiomyocytes (cm), cam, 24 hrs, read-out: POD cm.cam.24hrs.
Where [6] appears, read: Cardiomyocyte, 24 h, cardiomyocytes (cm), mii, 24 hrs, read-out: POD cm.mii.24hrs.
[7] abbreviates: Cardiomyocyte, 24 h, cardiomyocytes (cm), mito, 24 hrs, read-out: POD cm.mito.24hrs.
Setting [8] is: Cardiomyocyte, 24 h, cardiomyocytes (cm), tc, 24 hrs, read-out: POD cm.tc.24hrs.
Setting [9] is: Cardiomyocyte, 1.5 h, read-out: cm.cam.90min.
Setting [10] is: Cardiomyocyte, 1.5 h, read-out: cm.mii.90min.
[11] abbreviates: Cardiomyocyte, 1.5 h, read-out: cm.mito.90min.
The mark [12] stands for this setting: Cardiomyocyte, 1.5 h, read-out: cm.tc.90min.
Where [13] appears, read: Cardiomyocyte, 24 h, read-out: cm.cam.24hrs.
The mark [14] stands for this setting: Cardiomyocyte, 24 h, read-out: cm.mii.24hrs.
The mark [15] stands for this setting: Cardiomyocyte, 24 h, read-out: cm.mito.24hrs.
Where [16] appears, read: Cardiomyocyte, 24 h, read-out: cm.tc.24hrs.

Where a name gives a salt, the structure may show the parent alone. Read-outs that look alike come from different tables or passages of the source.

For the molecule `O=S(=O)(O)Oc1cc(Cl)c(-c2cc(Cl)ccc2Cl)cc1Cl` [4-PCB 52 sulfate], the minimal effective concentration by setting is: under setting [1], 10.8 µM; under setting [2], 41.2 µM; under setting [3], 10.6 µM; under setting [4], 10.8 µM; under setting [5], 8.2 µM; under setting [6], 44.6 µM. Also, the minimal effective concentration runs as follows: under setting [7], 8.28 µM; under setting [8], 8.44 µM.

As to `Clc1cccc(-c2cccc(Cl)c2)c1` [PCB11], the viability at 0.01 µM reads like this: under setting [9], 99%; under setting [12], 99%; under setting [13], 103%; under setting [16], 102%. In addition, the activity at 0.01 µM runs as follows: under setting [10], 116%; under setting [11], 99.1%; under setting [14], 93.5%; under setting [15], 102%. The viability at 0.1 µM by setting is: under setting [9], 97.7%; under setting [12], 97.7%; under setting [13], 99.5%; under setting [16], 99.3%. Moreover, the activity at 0.1 µM turned out to be 102% under setting [10], 97.7% under setting [11], 93% under setting [14] and 98.7% under setting [15]. Moreover, the viability at 1 µM reads like this: under setting [9], 101%; under setting [12], 101%; under setting [13], 101%; under setting [16], 101%. Also, the activity at 1 µM was found to be 98.3% under setting [10], 101% under setting [11], 93.7% under setting [14] and 98.5% under setting [15]. Further, the viability at 10 µM was determined as 99.5% under setting [9], 99.3% under setting [12], 103% under setting [13] and 103% under setting [16]. The activity at 10 µM is, setting by setting: under setting [10], 105%; under setting [11], 99.5%; under setting [14], 85.7%; under setting [15], 102%. Further, the viability at 100 µM by setting is: under setting [9], 1.03%; under setting [12], 1.06%; under setting [13], 0.64%; under setting [16], 0.62%. Also, the activity at 100 µM worked out at 152% under setting [10], 0.83% under setting [11], 31.3% under setting [14] and 0.24% under setting [15]. Besides, the minimal effective concentration is, setting by setting: (iPSC-CM, 1.5 h, iPSC-CM, read-out: cm.cam.90min POD) 18.6 µM; (iPSC-CM, 1.5 h, iPSC-CM, read-out: cm.mii.90min POD) 12.4 µM; (iPSC-CM, 1.5 h, iPSC-CM, read-out: cm.mito.90min POD) 14.2 µM; (iPSC-CM, 1.5 h, iPSC-CM, read-out: cm.tc.90min POD) 16.7 µM; (iPSC-CM, 24 h, iPSC-CM, read-out: cm.cam.24hrs POD) 35.2 µM; (iPSC-CM, 24 h, iPSC-CM, read-out: cm.mii.24hrs POD) 9.6 µM. The minimal effective concentration (iPSC-CM, 24 h, iPSC-CM, read-out: cm.mito.24hrs POD) amounted to 33.1 µM and the minimal effective concentration (iPSC-CM, 24 h, iPSC-CM, read-out: cm.tc.24hrs POD) is 35.1 µM.

Regarding `Clc1cc(Cl)c(-c2cc(Cl)c(Cl)cc2Cl)cc1Cl` [PCB 153, 2,2′,4,4′,5,5′-hexachlorobiphenyl], the minimal effective concentration stood at 20.6 µM under setting [1]; 100 µM under setting [2]; 19.8 µM under setting [3]; 23.2 µM under setting [4]; 11.6 µM under setting [5]; 39.9 µM under setting [6]. Also, the minimal effective concentration reads like this: under setting [7], 10.5 µM; under setting [8], 11.1 µM.
